From ChEMBL document CHEMBL3045943, “Novel N-aryl(alkaryl)-2-[(3-R-2-oxo-2H-[1,2,4]triazino[2,3-c]quinazoline-6-yl)thio]acetamides: synthesis, cytotoxicity, anticancer activity, COMPARE analysis and docking” (2013)

Legend:
Type in all cases: functional
A549 = assay: Cytotoxicity against Homo sapiens (human) A549 cells after 48 hr by SRB assay; conditions: A549, 48 h
LOX IMVI = assay: Cytotoxicity against Homo sapiens (human) LOXIMVI cells after 48 hr by SRB assay
SF-295 = assay: Cytotoxicity against Homo sapiens (human) SF295 cells after 48 hr by SRB assay; conditions: SF-295, 48 h
UO-31 [1] = assay: Cytotoxicity against Homo sapiens (human) UO31 cells assessed as cell growth at 10 uM after 48 hr by SRB assay relative to control; conditions: UO-31, 48 h, read-out: Activity
HCT-116 = assay: Cytotoxicity against Homo sapiens (human) HCT116 cells after 48 hr by SRB assay; conditions: HCT-116, 48 h
BT-549 = assay: Cytotoxicity against Homo sapiens (human) BT549 cells after 48 hr by SRB assay; conditions: BT-549, 48 h
ACHN = assay: Cytotoxicity against Homo sapiens (human) ACHN cells after 48 hr by SRB assay
PC-3 = assay: Cytotoxicity against Homo sapiens (human) PC3 cells assessed as cell growth at 10 uM after 48 hr by SRB assay relative to control; conditions: PC-3, 48 h, read-out: Activity
IGROV-1 = assay: Cytotoxicity against Homo sapiens (human) IGROV1 cells after 48 hr by SRB assay; conditions: IGROV-1, 48 h
A498 [2] = assay: Cytotoxicity against Homo sapiens (human) A498 cells after 48 hr by SRB assay; conditions: A498, 48 h
A498 [3] = assay: Cytotoxicity against Homo sapiens (human) A498 cells assessed as cell growth at 10 uM after 48 hr by SRB assay relative to control; conditions: A498, 48 h, read-out: Activity
UO-31 [4] = assay: Cytotoxicity against Homo sapiens (human) UO31 cells after 48 hr by SRB assay; conditions: UO-31, 48 h
MCF7 [5] = assay: Cytotoxicity against Homo sapiens (human) MCF7 cells after 48 hr by SRB assay; conditions: MCF7, 48 h
U-251 [6] = assay: Cytotoxicity against Homo sapiens (human) U251 cells assessed as cell growth at 10 uM after 48 hr by SRB assay relative to control; conditions: U-251, 48 h, read-out: Activity
M14 = assay: Cytotoxicity against Homo sapiens (human) M14 cells after 48 hr by SRB assay; conditions: M14, 48 h
DU-145 = assay: Cytotoxicity against Homo sapiens (human) DU145 cells after 48 hr by SRB assay; conditions: DU-145, 48 h
OVCAR-8 = assay: Cytotoxicity against Homo sapiens (human) OVCAR8 cells assessed as cell growth at 10 uM after 48 hr by SRB assay relative to control; conditions: OVCAR-8, 48 h, read-out: Activity
Malme-3M [7] = assay: Cytotoxicity against Homo sapiens (human) MALME-3M cells assessed as cell growth at 10 uM after 48 hr by SRB assay relative to control; conditions: read-out: Activity
HOP-62 = assay: Cytotoxicity against Homo sapiens (human) HOP62 cells assessed as cell growth at 10 uM after 48 hr by SRB assay relative to control; conditions: HOP-62, 48 h, read-out: Activity
Malme-3M [8] = assay: Cytotoxicity against Homo sapiens (human) MALME-3M cells after 48 hr by SRB assay
RXF 393 = assay: Cytotoxicity against Homo sapiens (human) RXF393 cells assessed as cell growth at 10 uM after 48 hr by SRB assay relative to control; conditions: RXF 393, 48 h, read-out: Activity
OVCAR-4 = assay: Cytotoxicity against Homo sapiens (human) OVCAR4 cells assessed as cell growth at 10 uM after 48 hr by SRB assay relative to control; conditions: OVCAR-4, 48 h, read-out: Activity
MCF7 [9] = assay: Cytotoxicity against Homo sapiens (human) MCF7 cells assessed as cell growth at 10 uM after 48 hr by SRB assay relative to control; conditions: MCF7, 48 h, read-out: Activity
NCI-H522 = assay: Cytotoxicity against Homo sapiens (human) NCI-H522 cells assessed as cell growth at 10 uM after 48 hr by SRB assay relative to control; conditions: NCI-H522, 48 h, read-out: Activity
U-251 [10] = assay: Cytotoxicity against Homo sapiens (human) U251 cells after 48 hr by SRB assay; conditions: U-251, 48 h
SK-MEL-5 = assay: Cytotoxicity against Homo sapiens (human) SK-MEL-5 cells assessed as cell growth at 10 uM after 48 hr by SRB assay relative to control; conditions: SK-MEL-5, 48 h, read-out: Activity
HT-29 = assay: Cytotoxicity against Homo sapiens (human) HT-29 cells assessed as cell growth at 10 uM after 48 hr by SRB assay relative to control; conditions: HT-29, 48 h, read-out: Activity
MDA-MB-468 = assay: Cytotoxicity against Homo sapiens (human) MDA-MB-468 cells assessed as cell growth at 10 uM after 48 hr by SRB assay relative to control; conditions: MDA-MB-468, 48 h, read-out: Activity
SK-MEL-28 = assay: Cytotoxicity against Homo sapiens (human) SK-MEL-28 cells assessed as cell growth at 10 uM after 48 hr by SRB assay relative to control; conditions: SK-MEL-28, 48 h, read-out: Activity
SF-268 = assay: Cytotoxicity against Homo sapiens (human) SF268 cells after 48 hr by SRB assay; conditions: SF-268, 48 h
HOP-92 = assay: Cytotoxicity against Homo sapiens (human) HOP92 cells after 48 hr by SRB assay; conditions: HOP-92, 48 h
HCT-15 = assay: Cytotoxicity against Homo sapiens (human) HCT15 cells assessed as cell growth at 10 uM after 48 hr by SRB assay relative to control; conditions: HCT-15, 48 h, read-out: Activity
[11] = read-out: pLC50 (the source's name) (converted)

In the case of `COc1ccccc1CNC(=O)CSc1nc2ccccc2c2nc(=O)c(-c3ccccc3)nn12`, the GI50 (A549) is reported as 2.34 µM, the CC50 (A549; [11]) is reported as > 100 µM and the TGI (A549; read-out: pTGI) is reported as > 100 µM. For the same molecule, the GI50 (LOX IMVI) was 2.09 µM, the CC50 (LOX IMVI; [11]) was > 100 µM and the TGI (LOX IMVI; read-out: pTGI) was > 100 µM. The GI50 (SF-295) was 2.45 µM, the CC50 (SF-295; [11]) was > 100 µM and the TGI (SF-295; read-out: pTGI (converted)) was 8.51 µM. For the same molecule, the growth at 10 µM (UO-31 [1]) was 43.8%, the GI50 (HCT-116) was 2.69 µM and the CC50 (HCT-116; [11]) was > 100 µM. For the same molecule, the TGI (HCT-116; read-out: pTGI) was > 100 µM, the GI50 (BT-549) was 2.14 µM and the LC50 (BT-549) was 74.1 µM. The TGI (BT-549; read-out: pTGI (converted)) was 3.98 µM, the GI50 (ACHN) was 1.86 µM and the CC50 (ACHN; [11]) was > 100 µM. For the same molecule, the TGI (ACHN; read-out: pTGI) was > 100 µM, the growth at 10 µM (PC-3) was 35.6% and the GI50 (IGROV-1) was 3.02 µM. The CC50 (IGROV-1; [11]) was > 100 µM, the TGI (IGROV-1; read-out: pTGI) was > 100 µM and the GI50 (A498 [2]) was 1.17 µM. For the same molecule, the LC50 (A498 [2]) was > 100 µM, the TGI (A498 [2]; read-out: pTGI (converted)) was 4.07 µM and the growth at 10 µM (A498 [3]) was -23.1%. The GI50 (UO-31 [4]) was 1.86 µM, the LC50 (UO-31 [4]) was > 100 µM and the TGI (UO-31 [4]; read-out: pTGI) was > 100 µM.
In the case of `COc1ccc(-c2nn3c(SCC(=O)Nc4ccccc4Cl)nc4ccccc4c3nc2=O)cc1`, the GI50 (MCF7 [5]) is reported as 2.34 µM, the CC50 (MCF7 [5]; [11]) is reported as > 100 µM and the TGI (MCF7 [5]; read-out: pTGI) is reported as > 100 µM. The growth at 10 µM (U-251 [6]) was -22.6%, the GI50 (M14) was 2.63 µM and the CC50 (M14; [11]) was > 100 µM. The TGI (M14; read-out: pTGI (converted)) was 100 µM, the GI50 (DU-145) was 1.38 µM and the CC50 (DU-145; [11]) was > 100 µM. For the same molecule, the TGI (DU-145; read-out: pTGI) was > 100 µM, the growth at 10 µM (OVCAR-8) was 31.5% and the growth at 10 µM (Malme-3M [7]) was 18.8%. For the same molecule, the growth at 10 µM (HOP-62) was 30.3%, the GI50 (Malme-3M [8]) was 1.86 µM and the CC50 (Malme-3M [8]; [11]) was > 100 µM. The TGI (Malme-3M [8]; read-out: pTGI (converted)) was 7.94 µM, the growth at 10 µM (RXF 393) was 37.4% and the growth at 10 µM (OVCAR-4) was 45%. For the same molecule, the growth at 10 µM (MCF7 [9]) was 32.8%, the growth at 10 µM (NCI-H522) was 36.5% and the GI50 (U-251 [10]) was 1.78 µM. For the same molecule, the LC50 (U-251 [10]) was 18.6 µM, the TGI (U-251 [10]; read-out: pTGI (converted)) was 4.68 µM and the growth at 10 µM (SK-MEL-5) was 41.4%. For the same molecule, the growth at 10 µM (HT-29) was 5.16%, the growth at 10 µM (MDA-MB-468) was 44.3% and the growth at 10 µM (SK-MEL-28) was -5.98%. For the same molecule, the GI50 (SF-268) was 2.95 µM, the CC50 (SF-268; [11]) was 72.4 µM and the TGI (SF-268; read-out: pTGI (converted)) was 13.8 µM. The GI50 (HOP-92) was 1.82 µM, the CC50 (HOP-92; [11]) was 42.7 µM and the TGI (HOP-92; read-out: pTGI (converted)) was 9.12 µM. For the same molecule, the growth at 10 µM (HCT-15) was 71.9%.
